Marks after values point to notes of the source that are not given here.
Experiments:
GHOST(3) X4/R5 cell line = assay: XTT cell viability in the CD4-dependent transmission assay; assay type: cell-based, human
Method: The […] is carried out essentially as described for the CD4-independent transmission assay except for the use of the CD4 positive GHOST(3) X4/R5 cell line. This cell line is derived from the HOS (human osteosarcoma) cell line that is negative for HIV coreceptor and CD4 expression. The cell line is engineered to express T4 (CD4), R5 and X4 via non-selectable retroviral vectors and an HIV-2 LTR hGFP construct with a hygromycin selectable marker. The cell lines are handled and cultured as described above for the CD4-independent HIV inhibition assay, with the exception that 2.5×10^4 GHOST(3) X4/R5 and 5×10^2 mitomycin C treated H9/SK-1 cells are used in the assay. Addition of compounds, mitomycin C treatment and post-transmission washing to remove the H9/SK-1 cells are performed as described above to allow comparability of the two antiviral assays. Virus replication is assessed at 24 h post infection, following 3 washes, by measurement of cell-associated p24 by ELISA to ensure a single round of infection in the presence of CD4. Compound toxicity and cell viability are assessed by XTT dye reduction.

HIV-2 (ROD) = assay: Anti-retroviral activity in HIV-infected MT-4 cells (MTT); assay type: cell-based; conditions: strain ROD (HIV-2)
Method: (§1) The human immunodeficiency virus strains used were HIV-1 (IIIB)^1 and HIV-2 (ROD)^2. Anti-retroviral activity and cytotoxicity measurements were carried out in parallel. […] After the MT-4 cells were allowed to proliferate for 5 days, the number of viable cells was quantified by a tetrazolium-based calorimetric 3-(4,5-dimethylthiazol-2-yl)-2,5-diphenyltetrazolium bromide (MTT) procedure in 96-well microtrays.^3
(§2) In all of these assays, viral input (viral multiplicity of infection, MOI) was 0.01, or 100 times the 50% cell culture infective dose (CCID50). […] Average EC50 and CC50 values for several separate experiments are presented as defined above. […] SI is the antiviral selectivity index CC50/EC50.

HeLa CD4 LTR […]-gal cells = assay: XTT toxicity on sister plate of the fusion assay; assay type: cell-based
Method: The fusion assay assesses the ability of compounds to block cell-to-cell fusion mediated by HIV-1 Env and CD4 expressed on separate cells. This assay is sensitive to inhibitors of both the gp120/CD4 interaction and inhibitors of the X4 coreceptor. First, 5×10^3 HeLa CD4 LTR […]-gal cells are placed in microtiter wells and incubated overnight. The following day the media is removed and the HeLa CD4 LTR […]-gal cells are incubated for 1 h at 37° C. in fresh media with test compound. Following the incubation 5×10^3 HL2/3 cells are added and the incubation continued for 40 to 48 h. At 40 to 48 h […]-galactosidase enzyme expression is detected by chemiluminescence (Tropix Gal-screen™, Tropix, Bedford, Mass.). Compound toxicity is monitored on a sister plate using XTT dye reduction.

PBMCs = assay: MTS cell viability in PBMC assay; assay type: cell-based, human
Excerpt: Human peripheral blood mononuclear cells from a minimum of 2 donors, that have been blasted with PHA and IL-2, were counted, viability determined by Trypan Blue dye exclusion and mixed in equal ratios. Pooled donors were used to minimize the variability observed between individual donors which results from quantitative and qualitative differences in HIV infection and overall response to the PHA and IL-2 of primary lymphocyte populations. The cells were resuspended at 1×10^6 cells/mL in RPMI 1640 without phenol red supplemented with 15% Fetal Bovine Serum (heat inactivated), 2 mM L-glutamine, 100 U/mL penicillin, 100 μg/mL streptomycin, 10 μg/mL gentamycin and IL-2 (20 U/mL, R&D Systems, Minneapolis, Minn.). Fifty microliters of cells were then distributed to the inner 60 wells of a 96 well round bottom microtiter culture plate in a standard format developed by the Infectious Disease Research department of Southern Research Institute. Each plate contains cell control wells (cells only), virus control wells (cells plus virus), and experimental wells (drug plus cells plus virus). Serially diluted compounds are added to the microtiter plate followed by the appropriate pre-titered strain of HIV-1 or SHIV-1. All samples were assayed in triplicate with a replicate plate without virus for the determination of compound toxicity. The final volume per well was 200 µL. The assay was incubated for 6 days in a humidified atmosphere at 37° C., 5% CO2, after which supernatants were collected, for analysis of RT activity and sister plates analyzed for cell viability by MTS dye reduction. Wells were also examined microscopically and any abnormalities noted.
At assay termination the assay plates were stained with the soluble tetrazolium-based dye MTS (CellTiter® Reagent Promega, Madison, Wis.) to determined cell viability and quantify compound toxicity. […] At termination of the PBMC assay 20 µL of MTS reagent was added per well, and the wells are incubated for 4 h at 37° C.
AZT has been used as a relevant positive control compound for the individual assays.

HIV-1 (IIIB) = assay type: cell-based; conditions: strain IIIB (HIV-1), MT-4 cells
Method: as §1, §2

C. trachomatis = C. trachomatis genital tract infection in mice; assay type: in vivo, mouse; conditions: 15 μL of 100 mg/mL, −20 sec
Excerpt: Lower genital tract infection is defined by isolation of the organism by culture from vaginal swab samples collected on days 3 or 6 post challenge. For upper genital tract infection the definition is isolation of the organism by culture from the upper genital tract tissue harvested on day 10 post challenge. Phosphate buffer PBS treated mice were used as controls.

BHAlyslys2lys4lys8lys16[NH—CO—CH2)O-3,6-Naphthyl-(SO3Na)2]32 [SPL-7013]
CD4-Dependent Transmission Assay TC50 (GHOST(3) X4/R5 cell line): >100 µg/mL | EC90 (HIV-2 (ROD)): 4.86 µg/mL | EC50 (HIV-2 (ROD); 5 days): 3.26 µg/mL | Fusion Assay TC50 (HeLa CD4 LTR […]-gal cells): >100 µg/mL | HIV-1 RoJo Infected PBMCs TC50 (PBMCs; plate of the HIV-1 RoJo test): >100 µg/mL | SHIV 89.6pd Infected PBMCs TC50 (PBMCs; plate of the SHIV 89.6pd test): >100 µg/mL | EC90 (HIV-1 (IIIB)): 0.954 µg/mL | EC50 (HIV-1 (IIIB); 5 days): 0.45 µg/mL | Animals Protected Against Infection, Lower Tract (%) (C. trachomatis; Group 1, mouse): (50%)^a | Animals Protected Against Infection, Lower Tract (number) (C. trachomatis; Group 1, mouse): 8 | Animals Protected Against Infection, Upper Tract (%) (C. trachomatis; Group 1, mouse): (50%) | Animals Protected Against Infection, Upper Tract (number) (C. trachomatis; Group 1, mouse): 8 | Animals Protected Against Infection, Lower Tract (%) (C. trachomatis; Group 2, mouse): (38%) | Animals Protected Against Infection, Lower Tract (number) (C. trachomatis; Group 2, mouse): 6 | Animals Protected Against Infection, Upper Tract (%) (C. trachomatis; Group 2, mouse): (50%)^a | Animals Protected Against Infection, Upper Tract (number) (C. trachomatis; Group 2, mouse): 8

From patent US8158575B2, “Agent for the prevention and treatment of sexually transmitted diseases-I” (priority 2001, dated 2012)
